Key:
[1] = biological target: Acetylcholinesterase (Electrophorus electricus) (UniProt O42275)
Description: Non-competitive inhibitory activity against acetylcholinesterase (AChE)

[2] = biological target: Acetylcholinesterase (Electrophorus electricus) (UniProt O42275); remark: listed apart in the source
Description: Competitive inhibitory activity against acetylcholinesterase (AChE)

Sequence of Acetylcholinesterase (Electrophorus electricus) (O42275 24-633 limits assumed): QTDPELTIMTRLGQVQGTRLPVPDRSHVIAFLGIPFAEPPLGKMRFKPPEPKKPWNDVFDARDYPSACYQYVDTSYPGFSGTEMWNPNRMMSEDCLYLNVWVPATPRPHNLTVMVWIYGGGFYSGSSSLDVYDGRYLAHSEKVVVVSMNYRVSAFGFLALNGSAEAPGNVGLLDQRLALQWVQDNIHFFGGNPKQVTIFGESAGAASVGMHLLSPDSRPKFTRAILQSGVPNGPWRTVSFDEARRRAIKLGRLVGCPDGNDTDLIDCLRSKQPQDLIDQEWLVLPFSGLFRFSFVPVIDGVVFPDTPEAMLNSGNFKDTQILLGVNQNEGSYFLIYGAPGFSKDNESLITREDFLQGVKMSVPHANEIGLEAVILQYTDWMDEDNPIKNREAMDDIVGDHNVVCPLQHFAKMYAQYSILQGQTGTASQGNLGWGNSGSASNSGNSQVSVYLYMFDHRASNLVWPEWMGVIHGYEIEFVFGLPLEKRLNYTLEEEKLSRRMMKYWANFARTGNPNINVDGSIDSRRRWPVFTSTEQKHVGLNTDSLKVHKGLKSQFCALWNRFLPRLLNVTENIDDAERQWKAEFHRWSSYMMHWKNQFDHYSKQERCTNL

Compound	pKinc [1]	pKic [2]
Cc1ccccc1COc1ccc2c(C)c(C)c(=O)oc2c1	4.68	
O=c1ccoc2ccc(OCc3ccccc3)cc12	4.29	
Cc1c(C)c2ccc(OCCc3ccccc3)cc2oc1=O	4.8	
COc1ccc2c(C)c(C)c(=O)oc2c1	4.56	4.8
Cc1c(C)c2ccc(OCc3ccc(F)c(F)c3)cc2oc1=O	5.06	
Cc1c(C)c2ccc(OCc3cccc(O)c3)cc2oc1=O	4.83	
Cc1cc(=O)c2cc(OCc3ccccc3)ccc2o1	4.53	4.78
Cc1c(C)c2ccc(O)cc2oc1=O	4	4.54
Cc1c(C)c2ccc(OCc3cc(F)cc(F)c3)cc2oc1=O	4.73	
Cc1c(C)c2ccc(OCc3ccccc3)cc2oc1=O	5.39	
Cc1c(C)c2ccc(OCc3cccc(N)c3)cc2oc1=O	4.74	
